Among the data in patent US9714239B2, “N-phenyl-lactam derivatives capable of stimulating neurogenesis and their use in the treatment of neurological disorders” (Hoffmann-La Roche Inc., priority 2014, dated 2017) are EC (150% of control) values, retold here.

The test has as its system human embryonic stem cell derived neural stem cells (NSCs). The experiment in a line: Neurogenesis assay: neural stem cell proliferation assay. The note with it: 96 h, compound concentration at which 150% activity of control (100%) is reached, increase in cells based on ATP levels (CellTiterGlo), 4 days incubation, dose response 8 μM to 8 nM. On the procedure: Neural Stem Cell Proliferation Assay
Neurogenic properties of small molecules are determined based on the proliferation of human embryonic stem cell derived neural stem cells (NSCs) which were derived via a dual smad inhibition as previously described (Chambers, S. M., et al., Highly efficient neural conversion of human ES and iPS cells by dual inhibition of SMAD signaling, Nature biotechnology, 2009 27(3): p. 275-80.).
Compounds response is measured by the increase in cells based on ATP levels (Promega:CellTiterGlo®) after an incubation period of 4 days. NSCs are thawed and expanded over 3 passages. On the 14th day, NSCs are seeded in Polyornithin/Laminin coated 384 well plates at a cell density of 21,000 cells/cm^2 in a media volume of 38 μl.
4 hours after cell seeding, compound solutions are added at a volume of 2 μl. Stock solutions of the compounds (water, 5% DMSO) are diluted to obtain a dose response (11 points, dilution factor is 2), ranging from 8 μM to 8 nM. Controls are run to consistently determine the neurogenic properties of the cells:
Negative (neutral) control is cell culture Media (final DMSO concentration: 0.25%).
1. cell culture Media+100 ng/ml FGF2 (final DMSO concentration: 0.1%)
2. cell culture Media+20 ng/ml EGF (final DMSO concentration: 0.1%)
3. cell culture Media+100 ng/ml Wnt3a (final DMSO concentration: 0.1%)
After 4 days incubation at 37° C., 5% CO2, the amount of ATP per well is quantified. The ATP concentration is proportional to the cell number. ATP is quantified by using the Promega CellTiterGlo® kit. The CellTiterGlo® reagents contain a cell lysis buffer, a thermo stable luciferase (UltraGlo™ recombinant luciferase), magnesium and luciferin. Luciferin reacts with ATP producing oxyluciferin, AMP and light. The luminescence signal is proportional to the ATP content.
The value of negative (neutral) control is determined for each assay plate by taking the average of 16 negative control wells. The neurogenic compound response is calculated for each compound as (compound/Negative Control)*100. The values of EC150 from the dose response curve are determined for each test compound. The EC150 is the compound concentration at which 150% activity of control (100%) is reached.
`COc1cc(N2CCN(Cc3ccccc3Cl)C2=O)ccc1-c1cnco1` [Example 69, 1-[(2-Chlorophenyl)methyl]-3-[3-methoxy-4-(1,3-oxazol-5-yl)phenyl]imidazolidin-2-one] returned an EC (150% of control) of 2.24 µM. In turn, `COc1cccc(C2CCN(c3ccc(-c4ccncc4)c(OC)c3)C2=O)c1` (stereo not shown) [Example 70, 3-(3-Methoxyphenyl)-1-(3-methoxy-4-pyridin-4-ylphenyl)pyrrolidin-2-one] came in with an EC (150% of control) of 0.0613 µM. Under `COc1cccc(C2CCN(c3ccc(-c4ccncc4)cc3)C2=O)c1` (stereo not shown) [Example 71, 3-(3-Methoxyphenyl)-1-(4-pyridin-4-ylphenyl)pyrrolidin-2-one] stands 0.0155 µM; under `O=C1N(Cc2cccc(F)c2)CCN1c1ccc(-c2cnco2)cc1` [Example 72, 1-[(3-Fluorophenyl)methyl]-3-[4-(1,3-oxazol-5-yl)phenyl]imidazolidin-2-one], 1.07 µM. Regarding `O=C1N(Cc2ccccc2F)CCN1c1ccc(-c2cnco2)cc1` [Example 73, 1-[(2-Fluorophenyl)methyl]-3-[4-(1,3-oxazol-5-yl)phenyl]imidazolidin-2-one], the EC (150% of control) stood at 1.49 µM. `COc1cc(N2CCN(Cc3ccccc3F)C2=O)ccc1-c1cnco1` [Example 74, 1-[(2-Fluorophenyl)methyl]-3-[3-methoxy-4-(1,3-oxazol-5-yl)phenyl]imidazolidin-2-one] returned an EC (150% of control) of 2.7 µM. `COc1cc(N2CCN(Cc3cccc(F)c3)C2=O)ccc1-c1cnco1` [Example 75, 1-[(3-Fluorophenyl)methyl]-3-[3-methoxy-4-(1,3-oxazol-5-yl)phenyl]imidazolidin-2-one] showed an EC (150% of control) of 0.597 µM.
